Measurements reported in patent US20220144747A1, “SHIKIMATE ANALOGUES AND METHODS OF USE” (The Board of Regents of the University of Oklahoma, priority 2016, published 2022).
Converted amounts (≈) assume the structure as drawn.

Tests used:
[1] = Thiol neutralization on pig skin (LCMS); conditions: with spermine in 50% propylene glycol, 2-phenylethanethiol, 10 min
Procedure: After the Pericosine composition was applied to the thiol on the pig skin and allowed to react for 10 minutes, an eluate from the treated area was analyzed with LCMS. Only a pericosine-thiol conjugate was detected.
Pericosine A, spermine, and the model thiol compound 2-phenylethanethiol were prepared into 100 mM stock solutions in dimethyl sulfoxide (DMSO). 5 uL pericosine A and 5 uL spermine solutions were pre-mixed into 50 uL 50% propylene glycol to form a test composition. A piece of pig skin (1 inch×1 inch) was placed in a 10-cm ID petri dish. 5 uL of the thiol solution was dispensed onto the pig skin sample. The pericosine test composition was applied to the thiol-treated spot on the pig skin sample. The petri dish was covered and gently agitated to cause the thiol sample to mix with the pericosine test composition. After 10 min incubation, the solution on the pig skin was transferred using a pipet into an Eppendorf tube. The treated spot on the pig skin was extracted with 100 uL MeOH and the MeOH solution was combined with the solution in the Eppendorf tube. After mixing and centrifuging, the mixed solution was subjected to LCMS analysis.
As shown in FIG. 21(a), a major pericosine-thiol conjugated product was detected by the LCMS analysis in the solution removed from the pig skin.

[2] = test system: Tolypocladium sp. T1; assay: Antifungal test against T1 in PDB / PDB-N media (fresh or 5-day-old T1 broth); assay type: cell-based; conditions: for effect of supplemental NaNO3 in test medium on antifungal efficacy: against T1, PDB-N = PDB plus 2 g/L NaNO3; for sensitivity of T1 to antifungal activity, normal versus NaNO3-supplemented medium: freshly prepared media, 3-day test window; for resistance of T1 culture: test medium prepared from 5-day-old T1 culture broth, non-NaNO3-supplemented
Excerpt: (§1) Media types: PDB (potato dextrose broth); PDB-N(PDB plus 2 g/L NaNO3); PDB 8:2 (mixture of centrifuged broth of T1 grown in PDB for 5 days with fresh PDB at the ratio of 8:2); PDB-N 8:2 (mixture of centrifuged broth of T1 grown in PDB-N for 5 days with fresh PDB at the ratio of 8:2).
(§2) This prompted us to ask the question what effect the addition of the shikimate analogue moiety had on the bioactivities of compounds 8, 9, 12, and the other nucleophilic substances that we tested. A panel of fungi including four Tolypocladium spp. (T1-T4), four Penicillium spp. (P1-P4) and Aspergillus niger (A1) were selected for assessment. […] To test the capacity of 11 to block the toxicity of 13 in real time, fungal cultures were preincubated with 11 and then treated with varying doses of 13. This regimen of preadministering 11 afforded up to an 8-fold decrease in the MIC of 13 (FIG. 15A). […] We had also noted that the addition of NaNO3 to the culture medium thoroughly abolished the formation of 10 and 11. […] Whereas previously reported resistance mechanisms involving antibiotic modification depended on the enzymatic modification of target substrates, fungal metabolites 10 and 11 functioned as electrophilic warheads that were reactive to a wide variety of natural and synthetic organic substances. The actions of these metabolites serve to limit the deleterious effects of antibiotics/toxins against their microbial targets.
The effects of compounds on fungal growth of fungi were tested using the method described in the NCCLS M38-A guidelines with following modifications. Fungi were cultured on PDA plates (potato dextrose agar, Becton Dickinson and Company) at 25° C. for 6-10 days. The spores/mycelia were disrupted by mechanical agitation and diluted in RPMI 1640 medium (Sigma Chemical Corporation) buffered to pH 7.0 with MOPS (0.165 M, Sigma). Test compounds were prepared in DMSO or EtOH at stock concentrations of 10 mM before being serially diluted in 50 μL RPMI 1640 plus MOPS medium for testing. Aliquots of spore suspension were added to the medium containing the diluted compounds or vehicle (<1% by vol.). After 72 h of incubation at 25° C., the optical densities of fungi were measured using a microplate reader (Infinite M200, Tecan Group Ltd.). The minimum inhibitory concentration (MIC) for growth was defined as the lowest concentration causing prominent growth reduction (>80%). The RPMI 1640 medium was replaced by PDB medium or PDB-N(PDB with 2 g/L NaNO3) for the indicated antifungal tests.

[3] = test system: fungi T1, T2, P1, P4, and A1; assay: Antifungal test of 13 on fungal cultures preincubated / co-treated with 11; assay type: cell-based, Tolypocladium spp., Penicillium spp., Aspergillus niger
Excerpt: as §1
This prompted us to ask the question what effect the addition of the shikimate analogue moiety had on the bioactivities of compounds 8, 9, 12, and the other nucleophilic substances that we tested. A panel of fungi including four Tolypocladium spp. (T1-T4), four Penicillium spp. (P1-P4) and Aspergillus niger (A1) were selected for assessment. […] To test the capacity of 11 to block the toxicity of 13 in real time, fungal cultures were preincubated with 11 and then treated with varying doses of 13. This regimen of preadministering 11 afforded up to an 8-fold decrease in the MIC of 13 (FIG. 15A). […] We had also noted that the addition of NaNO3 to the culture medium thoroughly abolished the formation of 10 and 11. […]
(§3) The effects of compounds on fungal growth of fungi were tested using the method described in the NCCLS M38-A guidelines with following modifications. […] After 72 h of incubation at 25° C., the optical densities of fungi were measured using a microplate reader (Infinite M200, Tecan Group Ltd.). […]

[4] = test system: four Tolypocladium spp. (T1-T4), four Penicillium spp. (P1-P4) and Aspergillus niger (A1); assay: Antifungal test (MIC) against a panel of test fungi; assay type: cell-based; conditions: against all of the fungal strains of the panel, 72 h, 25° C., MIC = >80% growth reduction, read-out: MIC (growth inhibition)
Procedure: as §2, with “The actions of these metabolites serve to limit the deleterious effects of antibiotics/toxins against their microbial targets.” left out
as §3

[5] = test system: EpiDerm™ reconstructed human epidermis tissues; assay: Time course toxicity in EpiDerm tissues (MTT assay); assay type: cell-based; conditions: after 24 hours
Procedure: All substances are safe for greater than 24 hours, at even a very high dose of 500 μM. […] Viability of EpiDerm™ tissues was determined by MTT assay.

[6] = test system: IL-1 alpha; assay: IL-1 alpha cytokine response in media of EpiDerm tissues (ELISA); assay type: cell-based, human; conditions: media of EpiDerm tissues after exposure
Procedure: IL-1 alpha secretion was not elevated in response to the test compounds, indicating a low potential for allergic reactions. […] Cytokine levels were determined by ELISA.

[7] = Stability / isomerization in solvents; assay type: physicochemical; conditions: for stability in solvents: CH2Cl2, CHCl3, MeOH, and EtOH at room temperature; for stability on prolonged storage: in alcohol over several weeks
Excerpt: The resulting mixture was purified on HPLC yielding 4 and its diastereomer 5. […] The ^1H and ^13C NMR data of 4 and 5 were almost identical (Tables S2 and S3 of the appendix of U.S. Provisional Patent Application 62/295,343). […] Thus, the absolute configuration of C-3′-C-5′ was deduced as 3'S,4'S,5'S, opposite to that of 4.

## COC(=O)C1=C[C@H](O)[C@H](O)[C@H](O)[C@H]1Cl [Compound 11, (+)-pericosine A]
[1]; listed as Pericosine A
  neutralization of thiol on a surface (pig skin): completely neutralize
[1]; listed as pericosine A
  neutralization of thiol on a surface (pig skin): quantitative consumption

## Cc1cc(C2CCCCC2)n(O)c(=O)c1 [Compound 13, ciclopirox]
[2]
  effect of supplemental NaNO3 in test medium on antifungal efficacy: enhanced
  sensitivity of T1 to antifungal activity, normal versus NaNO3-supplemented medium: equally sensitive
  resistance of T1 culture: increasingly resistant
[3]; co-treatment by 11 plus 13, fungi T1, T2, P1, P4, A1
  antifungal efficacy of 13 on co-treatment with 11: reduced
[3]; fungal cultures preincubated with 11, then treated with varying doses of 13
  decrease in the MIC of 13: ≤ 8 fold
[4]
  MIC: 1 to 50 µM (≈ 0.207 to 10.4 µg/mL)

## PF1140 [Compound 8]
[2]
  effect of supplemental NaNO3 in test medium on antifungal efficacy: enhanced
  sensitivity of T1 to antifungal activity, normal versus NaNO3-supplemented medium: equally sensitive
  resistance of T1 culture: increasingly resistant

## Triton X-100
[5]; 1% control in the test with activating compound and fragrance
  EpiDerm tissue outcome: epidermal death
[5]; 1% control, MTT assay
  EpiDerm tissue outcome: epidermal death
[6]
  IL-1 alpha secretion: significant response

## pseudomaximiscin A [Compound 4]
[7]
  stability in solvents: stable for several days
  stability on prolonged storage: modest levels of compound rearrangement
[7]; dissolved in DMSO-d6
  stability in DMSO-d6: Rapid isomerization

## pseudomaximiscin B [Compound 5]
[7]
  stability in solvents: stable for several days
  stability on prolonged storage: modest levels of compound rearrangement
